The subject of one series is HBV (2.2.15 cells). The series is described as follows: Antiviral activity in 2.2.15 cells: reduction of viral product accumulation (qPCR of lysates, HBsAg or HBeAg ELISA). The settings on record: Hepatitis B virus, 120 h, day 5 post treatment, 50% reduction of viral product accumulation in lysates or supernatants vs no drug controls, readout (qPCR, HBsAg, HBeAg) not specified. Format: cell-based, hepatitis B virus (HBV). Summed up: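 HBV-producing 2.2.15 cells, 35,000/well, treated with 5-fold serial compound dilutions at 0.5% final DMSO for 5 days. Lysate HBV DNA by qPCR or supernatant HBsAg/HBeAg by ELISA; EC50 is 50% reduction versus no-drug control, binned A<0.1 μM, B 0.1-1 μM, C>1 μM.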
For orientation: In qPCR the cycle at which signal appears reflects the starting amount.

Series [1] can be described thus: Compound induced cellular toxicity in HepG2 cells (ATPlite 1 Step). The settings on record: human, three days, 50% reduction of total ATP levels vs no drug controls. Format: cell-based. As for the experimental part:
At day 3, post seeding cells are treated with ATPlite 1 Step according to the manufacturer's instructions.

pEC50: −log10 of the molar value. Some results are limits rather than exact numbers.

One may read the pEC50 as −log10 of the EC50, conventionally taken in molar units. High values mean a small EC50, low ones a large EC50. One may read the CC50 as the concentration that lowers cell viability or growth by half.

Turning to `COCCCOc1cc2c(cc1-c1ccc(C)o1)-c1cc(=O)c(C(=O)O)cn1[C@H](C(C)(C)C)C2` [Example 1, (S)-6-(tert-butyl)-9-(3-methoxypropoxy)-10-(5-methylfuran-2-yl)-2-oxo-6,7-dihydro-2H-pyrido[2,1-a]isoquinoline-3-carboxylic Acid], the pEC50 with HBV (2.2.15 cells) is over 7.00. Also, the CC50 at 3 days in series [1] was over 25000 nM.

Compound `COCCCOc1cc2c(cc1-c1ccoc1)-c1cc(=O)c(C(=O)O)cn1[C@H](C(C)(C)C)C2` [Example 2, (S)-6-(tert-butyl)-10-(furan-3-yl)-9-(3-methoxypropoxy)-2-oxo-6,7-dihydro-2H-pyrido[2,1-a]isoquinoline-3-carboxylic Acid] showed a pEC50 in the series on HBV (2.2.15 cells) of over 7.00. In addition, the CC50 at 3 days in series [1] is over 25000 nM.

The compound `COCCCOc1cc2c(cc1-c1ccccc1)-c1cc(=O)c(C(=O)O)cn1[C@H](C(C)(C)C)C2` [Example 3, (S)-6-(tert-butyl)-9-(3-methoxypropoxy)-2-oxo-10-phenyl-6,7-dihydro-2H-pyrido[2,1-a]isoquinoline-3-carboxylic Acid] had a pEC50 in the series on HBV (2.2.15 cells) of over 7.00. Moreover, the half-maximal cytotoxic concentration (CC50) at 3 days in series [1] was under 10000 nM.

The compound `COCCCOc1cc2c(cc1-c1cnn(C)c1)-c1cc(=O)c(C(=O)O)cn1[C@H](C(C)(C)C)C2` [Example 4, (S)-6-(tert-butyl)-9-(3-methoxypropoxy)-10-(1-methyl-1H-pyrazol-4-yl)-2-oxo-6,7-dihydro-2H-pyrido[2,1-a]isoquinoline-3-carboxylic Acid] showed a negative logarithm of the EC50 (pEC50) in the series with HBV (2.2.15 cells) of over 7.00. Besides, the CC50 at 3 days in series [1] was over 25000 nM.

`COCCCOc1cc2c(cc1-c1ccsc1)-c1cc(=O)c(C(=O)O)cn1[C@H](C(C)(C)C)C2` [Example 5, (S)-6-(tert-butyl)-9-(3-methoxypropoxy)-2-oxo-10-(thiophen-3-yl)-6,7-dihydro-2H-pyrido[2,1-a]isoquinoline-3-carboxylic Acid] showed a pEC50 with HBV (2.2.15 cells) of over 7.00. The CC50 at 3 days in series [1] was over 25000 nM.

In the case of `COCCCOc1cc2c(cc1-c1cnco1)-c1cc(=O)c(C(=O)O)cn1[C@H](C(C)(C)C)C2` [Example 6, (S)-6-(tert-butyl)-9-(3-methoxypropoxy)-10-(oxazol-5-yl)-2-oxo-6,7-dihydro-2H-pyrido[2,1-a]isoquinoline-3-carboxylic Acid], the pEC50 in the series on HBV (2.2.15 cells) was over 7.00. This compound also showed a 50% cytotoxic concentration (CC50) at 3 days in series [1] of over 25000 nM.

In turn, `COCCCOc1cc2c(cc1-c1ccco1)-c1cc(=O)c(C(=O)O)cn1[C@H](C(C)(C)C)C2` [Example 7, (S)-6-(tert-butyl)-10-(furan-2-yl)-9-(3-methoxypropoxy)-2-oxo-6,7-dihydro-2H-pyrido[2,1-a]isoquinoline-3-carboxylic Acid] had a pEC50 in the series with HBV (2.2.15 cells) of over 7.00. In series [1], this compound had a CC50 at 3 days of over 25000 nM.

Consider `COCCCOc1cc2c(cc1-c1cccs1)-c1cc(=O)c(C(=O)O)cn1[C@H](C(C)(C)C)C2` [Example 8, (S)-6-(tert-butyl)-9-(3-methoxypropoxy)-2-oxo-10-(thiophen-2-yl)-6,7-dihydro-2H-pyrido[2,1-a]isoquinoline-3-carboxylic Acid], for which the pEC50 in the series with HBV (2.2.15 cells) was over 7.00. Moreover, in series [1], the CC50 at 3 days was 10000 to 25000 nM.

In the series with HBV (2.2.15 cells), `COCCCOc1cc2c(cc1-c1cc3ccccc3o1)-c1cc(=O)c(C(=O)O)cn1[C@H](C(C)(C)C)C2` [Example 9, (S)-10-(benzofuran-2-yl)-6-(tert-butyl)-9-(3-methoxypropoxy)-2-oxo-6,7-dihydro-2H-pyrido[2,1-a]isoquinoline-3-carboxylic Acid] gave a pEC50 of over 7.00. Moreover, the CC50 at 3 days in series [1] is over 25000 nM.

As for `COCCCOc1cc2c(cc1-c1ccccc1Cl)-c1cc(=O)c(C(=O)O)cn1[C@H]1[C@@H]2COC1(C)C` [Example 139, (3aS,12bR)-10-(2-chlorophenyl)-11-(3-methoxypropoxy)-3,3-dimethyl-7-oxo-3,3a,7,12b-tetrahydro-1H-furo[3,4-c]pyrido[2,1-a]isoquinoline-6-carboxylic Acid], in the series with HBV (2.2.15 cells), the negative-log EC50 (pEC50) is over 7.00.

Regarding `COCCCOc1cc2c(cc1-c1cccc(OC)c1)-c1cc(=O)c(C(=O)O)cn1[C@H]1[C@@H]2COC1(C)C` [Example 140, (3aS,12bR)-10-(3-methoxyphenyl)-11-(3-methoxypropoxy)-3,3-dimethyl-7-oxo-3,3a,7,12b-tetrahydro-1H-furo[3,4-c]pyrido[2,1-a]isoquinoline-6-carboxylic Acid], the pEC50 in the series with HBV (2.2.15 cells) is over 7.00.

The compound `COCCCOc1cc2c(cc1-c1ccccc1)-c1cc(=O)c(C(=O)O)cn1[C@H]1[C@@H]2COC1(C)C` [Example 141] gave a pEC50 in the series on HBV (2.2.15 cells) of over 7.00.

Consider `COCCCOc1cc2c(cc1-c1cccs1)-c1cc(=O)c(C(=O)O)cn1[C@H]1[C@@H]2COC1(C)C` [Example 142, (3aS,12bR)-11-(3-methoxypropoxy)-3,3-dimethyl-7-oxo-10-(thiophen-2-yl)-3,3a,7,12b-tetrahydro-1H-furo[3,4-c]pyrido[2,1-a]isoquinoline-6-carboxylic Acid], for which the pEC50 with HBV (2.2.15 cells) is over 7.00.

In turn, `COCCCOc1cc2c(cc1-c1ccsc1)-c1cc(=O)c(C(=O)O)cn1[C@H]1[C@@H]2COC1(C)C` [Example 143, (3aS,12bR)-11-(3-methoxypropoxy)-3,3-dimethyl-7-oxo-10-(thiophen-3-yl)-3,3a,7,12b-tetrahydro-1H-furo[3,4-c]pyrido[2,1-a]isoquinoline-6-carboxylic Acid] showed a pEC50 with HBV (2.2.15 cells) of over 7.00.

As to `Cn1ccc(-c2cc3c(c4c2OC(C)(C)C4)C[C@@H](C(C)(C)C)n2cc(C(=O)O)c(=O)cc2-3)n1` [Example 144, (S)-5-(tert-butyl)-2,2-dimethyl-12-(1-methyl-1H-pyrazol-3-yl)-9-oxo-2,3,4,9-tetrahydro-5H-furo[3,2-f]pyrido[2,1-a]isoquinoline-8-carboxylic Acid], the pEC50 in the series on HBV (2.2.15 cells) was under 6.00.

`CC1(C)Cc2c3c(cc(-c4cnsc4)c2O1)-c1cc(=O)c(C(=O)O)cn1[C@H](C(C)(C)C)C3` [Example 145, (S)-5-(tert-butyl)-12-(isothiazol-4-yl)-2,2-dimethyl-9-oxo-2,3,4,9-tetrahydro-5H-furo[3,2-f]pyrido[2,1-a]isoquinoline-8-carboxylic Acid] had a pEC50 in the series on HBV (2.2.15 cells) of under 6.00.

Take `CC1(C)Cc2c3c(cc(-c4ccn[nH]4)c2O1)-c1cc(=O)c(C(=O)O)cn1[C@H](C(C)(C)C)C3` [Example 146, (S)-5-(tert-butyl)-2,2-dimethyl-9-oxo-12-(1H-pyrazol-5-yl)-2,3,4,9-tetrahydro-5H-furo[3,2-f]pyrido[2,1-a]isoquinoline-8-carboxylic Acid]: in the series on HBV (2.2.15 cells), the pEC50 is under 6.00.

In the series on HBV (2.2.15 cells), `CC1(C)Cc2c3c(cc(-c4cn[nH]c4)c2O1)-c1cc(=O)c(C(=O)O)cn1[C@H](C(C)(C)C)C3` [Example 147, (S)-5-(tert-butyl)-2,2-dimethyl-9-oxo-12-(1H-pyrazol-4-yl)-2,3,4,9-tetrahydro-5H-furo[3,2-f]pyrido[2,1-a]isoquinoline-8-carboxylic Acid] gave a pEC50 of under 6.00.

Take `CC1(C)Cc2c3c(cc(-c4ccco4)c2O1)-c1cc(=O)c(C(=O)O)cn1[C@H](C(C)(C)C)C3` [Example 148, (S)-5-(tert-butyl)-12-(furan-2-yl)-2,2-dimethyl-9-oxo-2,3,4,9-tetrahydro-5H-furo[3,2-f]pyrido[2,1-a]isoquinoline-8-carboxylic Acid]: the pEC50 with HBV (2.2.15 cells) is under 6.00.

For `CC1(C)Cc2c3c(cc(-c4ccsc4)c2O1)-c1cc(=O)c(C(=O)O)cn1[C@H](C(C)(C)C)C3` [Example 149, (S)-5-(tert-butyl)-2,2-dimethyl-9-oxo-12-(thiophen-3-yl)-2,3,4,9-tetrahydro-5H-furo[3,2-f]pyrido[2,1-a]isoquinoline-8-carboxylic Acid], the negative-log EC50 (pEC50) in the series with HBV (2.2.15 cells) was under 6.00.

`Cn1nccc1-c1cc2c(c3c1OC(C)(C)C3)C[C@@H](C(C)(C)C)n1cc(C(=O)O)c(=O)cc1-2` [Example 150, (S)-5-(tert-butyl)-2,2-dimethyl-12-(1-methyl-1H-pyrazol-5-yl)-9-oxo-2,3,4,9-tetrahydro-5H-furo[3,2-f]pyrido[2,1-a]isoquinoline-8-carboxylic Acid] had a pEC50 in the series with HBV (2.2.15 cells) of under 6.00.

Compound `Cn1cc(-c2cc3c(c4c2OC(C)(C)C4)C[C@@H](C(C)(C)C)n2cc(C(=O)O)c(=O)cc2-3)cn1` [Example 151, (S)-5-(tert-butyl)-2,2-dimethyl-12-(1-methyl-1H-pyrazol-4-yl)-9-oxo-2,3,4,9-tetrahydro-5H-furo[3,2-f]pyrido[2,1-a]isoquinoline-8-carboxylic Acid] had a pEC50 in the series on HBV (2.2.15 cells) of under 6.00.

In the case of `CC1(C)Cc2c3c(cc(-c4cccs4)c2O1)-c1cc(=O)c(C(=O)O)cn1[C@H](C(C)(C)C)C3` [Example 152, (S)-5-(tert-butyl)-2,2-dimethyl-9-oxo-12-(thiophen-2-yl)-2,3,4,9-tetrahydro-5H-furo[3,2-f]pyrido[2,1-a]isoquinoline-8-carboxylic Acid], the pEC50 with HBV (2.2.15 cells) is under 6.00.

The compound `COCCCCc1cc2c(cc1N1CC(F)(F)C1)-c1cc(=O)c(C(=O)O)cn1[C@H](C(C)(C)C)C2` [Example 153, (S)-6-(tert-butyl)-10-(3,3-difluoroazetidin-1-yl)-9-(4-methoxybutyl)-2-oxo-6,7-dihydro-2H-pyrido[2,1-a]isoquinoline-3-carboxylic Acid] had a pEC50 in the series on HBV (2.2.15 cells) of over 7.00.

In the series on HBV (2.2.15 cells), `CC(C)(C)[C@@H]1Cc2ccc(N3CC(F)(F)C3)cc2-c2cc(=O)c(C(=O)O)cn21` [Example 154, (S)-6-(tert-butyl)-10-(3,3-difluoroazetidin-1-yl)-2-oxo-6,7-dihydro-2H-pyrido[2,1-a]isoquinoline-3-carboxylic Acid] gave a pEC50 of under 6.00.

For the compound `CC(C)(C)[C@@H]1Cc2c(cc(N3CC(F)(F)C3)c3c2C[C@H](C(F)F)O3)-c2cc(=O)c(C(=O)O)cn21` [Example 155, (2R,5S)-5-(tert-butyl)-12-(3,3-difluoroazetidin-1-yl)-2-(difluoromethyl)-9-oxo-2,3,4,9-tetrahydro-5H-furo[3,2-f]pyrido[2,1-a]isoquinoline-8-carboxylic Acid], the pEC50 in the series with HBV (2.2.15 cells) was under 6.00.

These data come from patent publication US11058678B2 (Enanta Pharmaceuticals, Inc., priority 2018, dated 2021).
